Experimental data: BigSolDB 2.1

CSCC[C@H](NC(C)=O)C(=O)O
solubility (mole fraction)
Conditions	283.15 K	288.15 K	293.15 K	298.15 K	303.15 K	308.15 K	313.15 K	318.15 K	323.15 K
in 2-butanone	0.0192	0.0243	0.0316	0.0408	0.0546	0.0764	0.112	0.135	0.18
in acetone	0.0372	0.0524	0.0643	0.0899	0.118	0.154	0.195	0.231	0.283
in acetonitrile	0.00684	0.00873	0.0119	0.0167	0.0238	0.0354	0.0549	0.0912	0.154
in dimethyl carbonate	0.00222	0.00268	0.00369	0.00531	0.00614	0.00835	0.0109	0.0151	0.0216
in ethanol	0.0966	0.121	0.145	0.163	0.186	0.222	0.285	0.343	0.409
in ethyl acetate	0.00553	0.00645	0.00846	0.0101	0.0134	0.0169	0.022	0.0284	0.0399
in methyl acetate	0.00709	0.00877	0.0113	0.015	0.0193	0.026	0.0358	0.052	0.0821
in n-butanol	0.0531	0.0697	0.084	0.103	0.121	0.145	0.175	0.207	0.242
in n-butyl acetate	0.00312	0.00346	0.00409	0.00536	0.00667	0.00833	0.0103	0.0137	0.0171
in n-pentanol	0.0417	0.05	0.0609	0.0755	0.0901	0.113	0.14	0.167	0.212
in n-propanol	0.0668	0.0825	0.099	0.127	0.158	0.191	0.237	0.281	0.327
in n-propyl acetate	0.0037	0.00414	0.00487	0.00685	0.00834	0.0107	0.013	0.0171	0.021
